Legend:
Assay type in all cases: functional, cell-based
SMMC-7721 = assay: Cytotoxicity against human SMMC7721 cells after 48 hrs by MTT assay
MCF7 = assay: Cytotoxicity against human MCF7 cells after 48 hrs by MTT assay
SW480 = assay: Cytotoxicity against human SW480 cells after 48 hrs by MTT assay
HL-60 = assay: Cytotoxicity against human HL60 cells after 48 hrs by MTT assay
A549 = assay: Cytotoxicity against human A549 cells after 48 hrs by MTT assay

Row | Compound | IC50 (SMMC-7721; Homo sapiens, SMMC-7721, 48 h) [µM] | IC50 (MCF7; Homo sapiens, MCF7, 48 h) [µM] | IC50 (SW480; Homo sapiens, SW480, 48 h) [µM] | IC50 (HL-60; Homo sapiens, HL-60, 48 h) [µM] | IC50 (A549; Homo sapiens, A549, 48 h) [µM] | IC50 (MCF7; mcf7) [µM] | IC50 (HL-60; hl-60) [µM] | IC50 (SMMC-7721; smmc-7721) [µM] | IC50 (SW480; sw480) [µM] | IC50 (A549; a549) [µM]
1 | Cc1n(Cc2c3c(cc4c2OCC4)OCC3)c2ccccc2[n+]1Cc1ccccc1Br | > 20 | > 20 | > 20 | > 20 | > 20 |  |  |  |  | 
2 | Cc1ccc(C[n+]2c(C)n(Cc3c4c(cc5c3OCC5)OCC4)c3ccccc32)cc1 | > 20 | > 20 | > 20 | > 20 | > 20 |  |  |  |  | 
3 | Brc1ccc(C[n+]2ccn(Cc3c4c(cc5c3OCC5)OCC4)c2)cc1 | > 20 | > 20 | > 20 | > 20 | > 20 |  |  |  |  | 
4 | Brc1ccc(C[n+]2cn(Cc3c4c(cc5c3OCC5)OCC4)c3ccccc32)cc1 | 17.8 | 5.4 | 10.1 | 4.12 | > 20 |  |  |  |  | 
5 | Brc1ccccc1C[n+]1cn(Cc2c3c(cc4c2OCC4)OCC3)c2ccccc21 | > 20 | 8.3 | 8.95 | 4.9 | > 20 |  |  |  |  | 
6 | Cc1ccc(C[n+]2cn(Cc3c4c(cc5c3OCC5)OCC4)c3ccccc32)cc1 | > 20 | > 20 | > 20 | > 20 | > 20 |  |  |  |  | 
7 | O=[N+]([O-])c1ccc(C[n+]2ccn(Cc3c4c(cc5c3OCC5)OCC4)c2)cc1 | > 20 | > 20 | > 20 | > 20 | > 20 |  |  |  |  | 
8 | O=C(C[n+]1cn(Cc2c3c(cc4c2OCC4)OCC3)c2ccccc21)c1ccc2ccccc2c1 | 5.25 | 2.2 | 5.42 | 1.88 | 7.73 |  |  |  |  | 
9 | Cc1cc2c(cc1C)[n+](Cc1ccc3ccccc3c1)cn2Cc1c2c(cc3c1OCC3)OCC2 [listing 1 of 2 here] | 2.99 |  | 3.48 |  | 4.34 | 3.94 | 1.06 |  |  | 
10 | Cc1cc2c(cc1C)[n+](Cc1ccc(Br)cc1)cn2Cc1c2c(cc3c1OCC3)OCC2 [listing 1 of 2 here] | 4.72 | 6.85 | 10.1 | 0.49 | 6.9 |  |  |  |  | 
11 | O=C(C[n+]1cn(Cc2c3c(cc4c2OCC4)OCC3)c2ccccc21)c1ccc(Br)cc1 | 5.95 | 5.12 | 5.11 | 5.81 | 16.1 |  |  |  |  | 
12 | Cc1n(Cc2c3c(cc4c2OCC4)OCC3)c2ccccc2[n+]1CC(=O)c1ccc(Br)cc1 | 11.8 | 6.43 | 8.29 | 4.7 | > 20 |  |  |  |  | 
13 | COc1ccc(C(=O)C[n+]2cn(Cc3c4c(cc5c3OCC5)OCC4)c3ccccc32)cc1 | > 20 | 6.6 | 14 | 5.99 | > 20 |  |  |  |  | 
14 | c1ccc2cc(C[n+]3ccn(Cc4c5c(cc6c4OCC6)OCC5)c3)ccc2c1 | > 20 | > 20 | > 20 | > 20 | > 20 |  |  |  |  | 
15 | c1ccc2cc(C[n+]3cn(Cc4c5c(cc6c4OCC6)OCC5)c4ccccc43)ccc2c1 | 5.66 | 2.62 | 4.11 | 2.3 | 10.7 |  |  |  |  | 
16 | Cc1cc2c(cc1C)[n+](CC(=O)c1ccc(Br)cc1)cn2Cc1c2c(cc3c1OCC3)OCC2 [listing 1 of 2 here] |  | 12.7 | 16.3 | 4.04 | 8 |  |  | 6.23 |  | 
17 | COc1ccc(C(=O)C[n+]2c(C)n(Cc3c4c(cc5c3OCC5)OCC4)c3ccccc32)cc1 | > 20 | 7.87 | 10.1 | 5.14 | > 20 |  |  |  |  | 
18 | O=C(C[n+]1ccn(Cc2c3c(cc4c2OCC4)OCC3)c1)c1ccc(Br)cc1 | > 20 | > 20 | > 20 | > 20 | > 20 |  |  |  |  | 
19 | Cc1cc2c(cc1C)[n+](Cc1ccc([N+](=O)[O-])cc1)cn2Cc1c2c(cc3c1OCC3)OCC2 | > 20 | > 20 | > 20 | > 20 | > 20 |  |  |  |  | 
20 | Cc1n(Cc2c3c(cc4c2OCC4)OCC3)c2ccccc2[n+]1Cc1ccc([N+](=O)[O-])cc1 | > 20 | > 20 | > 20 | > 20 | > 20 |  |  |  |  | 
21 | Cc1cc2c(cc1C)[n+](CC(=O)c1ccc(Br)cc1)cn2Cc1c2c(cc3c1OCC3)OCC2 [listing 2 of 2 here] |  |  |  |  |  | 18 | 2.38 | 13 | 15.2 | 15.3

Row | Compound | IC50 (SMMC-7721; Homo sapiens, SMMC-7721, 48 h) [µM] | IC50 (MCF7; Homo sapiens, MCF7, 48 h) [µM] | IC50 (SW480; Homo sapiens, SW480, 48 h) [µM] | IC50 (HL-60; Homo sapiens, HL-60, 48 h) [µM] | IC50 (A549; Homo sapiens, A549, 48 h) [µM] | IC50 (MCF7; mcf7) [µM] | IC50 (HL-60; hl-60) [µM] | IC50 (SMMC-7721; smmc-7721) [µM] | IC50 (SW480; sw480) [µM] | IC50 (A549; a549) [µM]
22 | Cc1cc2c(cc1C)[n+](Cc1ccccc1Br)cn2Cc1c2c(cc3c1OCC3)OCC2 | 5.96 | 7.29 | 7.87 | 3.18 | 8.64 |  |  |  |  | 
23 | COc1ccc(C(=O)C[n+]2cn(Cc3c4c(cc5c3OCC5)OCC4)c3cc(C)c(C)cc32)cc1 | 6.87 | 9.87 | 13.7 | 2.71 | 15.4 |  |  |  |  | 
24 | Brc1ccccc1C[n+]1ccn(Cc2c3c(cc4c2OCC4)OCC3)c1 | > 20 | > 20 | > 20 | > 20 | > 20 |  |  |  |  | 
25 | Cc1n(Cc2c3c(cc4c2OCC4)OCC3)c2ccccc2[n+]1CC(=O)c1ccccc1 | > 20 | > 20 | > 20 | > 20 | > 20 |  |  |  |  | 
26 | O=C(C[n+]1cn(Cc2c3c(cc4c2OCC4)OCC3)c2ccccc21)c1ccccc1 | > 20 | > 20 | > 20 | > 20 | > 20 |  |  |  |  | 
27 | COc1ccc(C(=O)C[n+]2ccn(Cc3c4c(cc5c3OCC5)OCC4)c2)cc1 | > 20 | > 20 | > 20 | > 20 | > 20 |  |  |  |  | 
28 | Cc1nc2ccccc2n1Cc1c2c(cc3c1OCC3)OCC2 | > 20 | > 20 | > 20 | > 20 | > 20 |  |  |  |  | 
29 | O=[N+]([O-])c1ccc(C[n+]2cn(Cc3c4c(cc5c3OCC5)OCC4)c3ccccc32)cc1 | > 20 | > 20 | > 20 | > 20 | > 20 |  |  |  |  | 
30 | Cc1cc2c(cc1C)[n+](CC(=O)c1ccccc1)cn2Cc1c2c(cc3c1OCC3)OCC2 | 17.4 | 7.8 | 11.9 | 5.68 | > 20 |  |  |  |  | 
31 | Cc1ccc(C[n+]2cn(Cc3c4c(cc5c3OCC5)OCC4)c3cc(C)c(C)cc32)cc1 [listing 1 of 2 here] |  |  |  |  |  | 7.98 | 0.38 | 6.49 | 6.31 | 4.06
32 | Cc1ccc(C[n+]2cn(Cc3c4c(cc5c3OCC5)OCC4)c3cc(C)c(C)cc32)cc1 [listing 2 of 2 here] | 4.43 | 7.39 | 6.15 |  | 5.82 |  | 1.58 |  |  | 
33 | Cc1n(Cc2c3c(cc4c2OCC4)OCC3)c2ccccc2[n+]1Cc1ccc(Br)cc1 | 7.42 | 4.86 | 7.22 | 3.63 | > 20 |  |  |  |  | 
34 | Cc1n(Cc2c3c(cc4c2OCC4)OCC3)c2ccccc2[n+]1Cc1ccc2ccccc2c1 | 5.5 | 3.4 | 4.1 | 1.76 | 9.14 |  |  |  |  | 
35 | Cc1ccc(C[n+]2ccn(Cc3c4c(cc5c3OCC5)OCC4)c2)cc1 | > 20 | > 20 | > 20 | > 20 | > 20 |  |  |  |  | 
36 | Cc1cc2c(cc1C)[n+](Cc1ccc(Br)cc1)cn2Cc1c2c(cc3c1OCC3)OCC2 [listing 2 of 2 here] |  |  |  |  |  | 8.05 | 0.57 | 6.61 | 7.76 | 9.01
37 | Cc1cc2c(cc1C)[n+](Cc1ccc3ccccc3c1)cn2Cc1c2c(cc3c1OCC3)OCC2 [listing 2 of 2 here] |  |  |  |  |  | 8.34 | 0.29 | 2.98 | 6.84 | 3.62
38 | O=C(C[n+]1ccn(Cc2c3c(cc4c2OCC4)OCC3)c1)c1ccc2ccccc2c1 | > 20 | > 20 | > 20 | > 20 | > 20 |  |  |  |  | 
39 | c1cn(Cc2c3c(cc4c2OCC4)OCC3)cn1 | > 20 | > 20 | > 20 | > 20 | > 20 |  |  |  |  | 
40 | Cc1cc2ncn(Cc3c4c(cc5c3OCC5)OCC4)c2cc1C | > 20 | > 20 | > 20 | > 20 | > 20 |  |  |  |  | 
41 | c1ccc2c(c1)ncn2Cc1c2c(cc3c1OCC3)OCC2 | > 20 | > 20 | > 20 | > 20 | > 20 |  |  |  |  | 
42 | Cc1cc2c(cc1C)[n+](CC(=O)c1ccc3ccccc3c1)cn2Cc1c2c(cc3c1OCC3)OCC2 | 5.64 | 8.67 | 14 | 1.95 | 7.77 |  |  |  |  | 
